Assay results from patent US20230381185A1, “NOVEL FORMULATIONS FOR ORAL ADMINISTRATION OF THERAPEUTIC AGENTS TO THE GASTROINTESTINAL TRACT” (3-D Matrix, Ltd., priority 2022, published 2023).
“Also recorded” adds a separate entry of the source. Read-outs that look alike come from different tables or passages of the source.

How the values were obtained:
[1] = cited from earlier work
[2] = tested on: liver punch hole injuries in pigs; details: cited from earlier work; for inflammatory cell infiltration due to the SAP: short-term study
[3] = tested on: oozing wounds in the walls of the stomach and/or duodenum of pigs; details: endoscopic administration, no control group; cited from earlier work
DSS-induced colitis mice = assay: Efficacy in DSS-induced colitis (DAI, colon weight/length, MPO, histology, immune cells); assay type: in vivo
From the text: An additional benefit of this nanocomposite system is that it can be dried and then reconstituted in vivo or under in vivo-like conditions without substantial alteration of its properties. The dried nanocomposite offers the advantage of a long-duration storage, but, perhaps more importantly, the dried nanocomposite powder can be encapsulated in various types of capsules known in the art for a controlled and localized delivery in precise part of the GIT with systems differentiated in the basis of GIT transit times, pH changes, bacterial enzymes, mucoadhesion, nanotechnologies and disease-associated triggers. One such capsule, designed for release of hydrated RADA16 hydrogel doped with a macromolecular dye, fluorescein isothiocyanate—dextran 4 kDa (FD4), mostly in the large intestine, has been described by Eleftheriadis et al. (Pharm. Development Tech. 25(4): 1-23 (2020)). That reference discloses a pH sensitive hydroxypropyl methylcellulose-phthalate (HPMCP)-based 3D-printed capsule. Other encapsulation materials suited to the present invention include poly(meth) acrylate polymers and members of the Eudragit family (Chu, J. N. and Traverso, G., Foundations of gastrointestinal-based drug delivery and future developments, Nature Reviews: Gastroenterology & Hepatology (2021) doi: 10.1038/s41575-021-00539-w). The present invention is based, at least, on the following findings/parameters: • 1. A nanocomposite based on the physical mixture of a preformed nanosystem (namely nanoemulsion, NE) loaded with a drug intended for the treatment of IBD, and a preformed self-assembling-peptide ([…])-based hydrogel (PURASTAT) was created at different concentrations of SAP. • 2. The creation of nanocomposites characterized by two different concentrations, led to the development of systems with different structural properties, leading to differences in the drug-release behaviours. • 3. […] The use of nanocomposite to test the therapeutic efficacy of the drug on an IBD-mouse model brought results based on different technique, detailed herein. • 5. Certain disease factors were improved by administration of PS hydrogel/NE mixture alone, even in the absence of any active ingredients. Disease activity index (DAI) score, used to evaluate the DSS-induced colitis. […] For each parameter a score from 0 to 4 was attributed and afterwards divided by three, resulting in the total DAI score ranging from 0 (unaffected) to 4 (severe colitis) (Gonçalves, F. da C., Schneider, N., H. M.-A. S. & 2013, U. Characterization of Acute Murine Dextran Sodium Sulfate (DSS) Colitis: Severity of Inflammation is Dependent on the DSS Molecular Weight and Concentration. Acta Sci. Vet. 41, 1-9 (2013)). Colon length and weight, which is often reduced in cases of inflammation (Biton, I. E. et al. Assessing Mucosal Inflammation in a DSS-Induced Colitis Mouse Model by MR Colonography. Tomogr. (Ann Arbor, Mich.) 4, 4-13 (2018)). The activity of the enzyme myeloperoxidase (MPO), which is a direct indicator of neutrophils infiltration into the colonic mucosa, and thus an important marker of inflammation (Hansberry, D. R., Shah, K., Agarwal, P. & Agarwal, N. Fecal Myeloperoxidase as a Biomarker for Inflammatory Bowel Disease. Cureus 9, (2017)). Histomorphologic evaluation by HPS stain (hematoxylin phloxine saffron stain), similar to H&E. HPS can differentiate between the most common connective tissue (collagen) and muscle and cytoplasm by staining the former yellow and the latter two pink, unlike an H&E stain, which stains all three pink. Immunohistochemistry for the detection of CD45 positive cells.
Efficacy of drug-loaded nanocomposites compared to a variety of controls was tested using mice of the same strain used in Example 5. Based on the results from the Stage 1 in vivo studies already described, all mice (except for the G1 healthy control group) were given 3% v/v DSS in drinking water for 4 days. After 4 days all mice were given normal drinking water (i.e., no DSS). […]

KLDLKLDLKLDL [KLD12]
storage modulus G′ ([1]; 1.5% in water): about 350 Pa

Ac-RADARADARADARADA-CONH2 [RADA16]
storage modulus G′ ([1]; 2.5% in water): about 350 Pa | inflammatory cell infiltration due to the SAP [2]: absence

IEIKIEIKIEIKI [IEIK13]
hemostasis [3]: hemostasis was achieved in both heparinized and non-heparinized animals | storage modulus G′ ([1]; 1% in water): ~700 Pa | hemostasis ([2]; compared to RADA16): statistically significant improvement | inflammatory cell infiltration due to the SAP [2]: absence

C[C@@H]1CCN(C(=O)CC#N)C[C@@H]1N(C)c1ncnc2[nH]ccc12 [TFC, Tofacitinib]
Myeloperoxidase (MPO) activity in colonic tissue (DSS-induced colitis mice; indicator of neutrophil infiltration): slight improvement | Th2 or Treg populations (DSS-induced colitis mice; mouse, in vivo): did not affect | infiltration of lymphocytes / CD45+ cells (DSS-induced colitis mice; mouse, in vivo): reduced infiltration of lymphocytes | proportion of Th1 and Th17 proinflammatory populations (DSS-induced colitis mice; mouse, in vivo): significantly reduced | total amount of T cells (CD3+) (DSS-induced colitis mice; mouse, in vivo): strongly reduced | colon weight/colon length ratio (g/cm) (DSS-induced colitis mice; sacrifice at day 10, relative to G2 untreated IBD mice): statistically significant improvement; also recorded: significantly prevented | epithelium and muscularis structure / architecture (histology) (DSS-induced colitis mice; with respect to G2): considerable amelioration
